Target: ROCK1 (Homo sapiens (Human), UniProt Q13464)
Test: ROCK1 kinase IC50 assay (biological test method similar to the ROCK2 assay)
Assay type: biochemical
In short: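 HTRF KinEASE-STK S2 assay with the STK-S2 biotinylated substrate and ATP, at 5× working solutions of 1.5 µM each. Kinase reaction with 9-point compound dilutions ran 2 h at room temperature, followed by 1 h streptavidin-XL665/Cryptate detection. The 665/615 nm ratio was normalised to no-compound and no-kinase wells, and IC50 was obtained by curve fitting.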

Chain of ROCK1 (Q13464 whole entry, species assumed): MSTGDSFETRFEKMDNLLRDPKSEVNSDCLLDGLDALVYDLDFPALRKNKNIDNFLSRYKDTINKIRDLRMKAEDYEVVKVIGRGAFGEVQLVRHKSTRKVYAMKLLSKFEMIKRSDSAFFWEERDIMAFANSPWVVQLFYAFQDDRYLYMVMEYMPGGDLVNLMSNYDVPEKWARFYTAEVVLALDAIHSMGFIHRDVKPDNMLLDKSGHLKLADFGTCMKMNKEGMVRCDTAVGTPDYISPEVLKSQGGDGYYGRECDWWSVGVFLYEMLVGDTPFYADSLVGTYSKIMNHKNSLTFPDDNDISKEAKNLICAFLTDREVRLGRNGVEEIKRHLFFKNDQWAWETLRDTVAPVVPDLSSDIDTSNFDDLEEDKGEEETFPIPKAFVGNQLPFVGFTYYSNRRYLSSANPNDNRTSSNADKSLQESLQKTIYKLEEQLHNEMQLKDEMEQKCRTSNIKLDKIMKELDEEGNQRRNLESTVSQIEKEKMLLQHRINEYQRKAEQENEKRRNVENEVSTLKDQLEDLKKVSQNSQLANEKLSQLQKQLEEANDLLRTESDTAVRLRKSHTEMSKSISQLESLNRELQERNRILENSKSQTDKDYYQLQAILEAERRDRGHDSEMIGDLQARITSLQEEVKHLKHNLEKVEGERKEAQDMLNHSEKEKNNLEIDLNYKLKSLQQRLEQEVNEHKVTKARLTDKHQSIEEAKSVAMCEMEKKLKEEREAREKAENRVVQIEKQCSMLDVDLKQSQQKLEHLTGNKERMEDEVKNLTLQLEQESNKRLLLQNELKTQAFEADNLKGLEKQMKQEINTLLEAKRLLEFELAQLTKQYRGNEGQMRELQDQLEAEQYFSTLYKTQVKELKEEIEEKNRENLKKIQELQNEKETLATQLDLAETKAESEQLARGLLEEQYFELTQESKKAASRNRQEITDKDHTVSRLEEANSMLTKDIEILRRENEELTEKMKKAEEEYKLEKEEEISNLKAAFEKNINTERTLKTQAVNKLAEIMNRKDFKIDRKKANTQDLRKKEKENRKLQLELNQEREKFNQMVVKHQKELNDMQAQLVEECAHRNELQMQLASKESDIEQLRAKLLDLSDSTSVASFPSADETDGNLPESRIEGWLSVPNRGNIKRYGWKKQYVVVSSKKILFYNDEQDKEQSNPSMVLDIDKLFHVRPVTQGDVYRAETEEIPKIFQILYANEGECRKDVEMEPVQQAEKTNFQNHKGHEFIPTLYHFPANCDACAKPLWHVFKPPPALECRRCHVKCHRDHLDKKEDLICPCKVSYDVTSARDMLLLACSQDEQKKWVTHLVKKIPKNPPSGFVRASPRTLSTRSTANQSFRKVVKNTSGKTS

SMILES | IC50 [µM]
O=C(Nc1cccnc1)c1cc2ccc(-c3nccc(Nc4ccc(-c5cn[nH]c5)cc4)n3)cc2[nH]1 [TDI01397, 6-(4-((4-(1H-pyrazol-4-yl)phenyl)-amino)-pyrimidin-2-yl)-N-(pyridin-3-yl)-1H-indole-2-carboxamide] | 6
N#CC1CN(C(=O)c2cc3ccc(-c4nccc(Nc5ccc(-c6cn[nH]c6)cc5)n4)cc3[nH]2)C1 [TDI01398, 1-(6-(4-((4-(1H-pyrazol-4-yl)phenyl)-amino)-pyrimidin-2-yl)-1H-indole-2-carbonyl)-azetidine-3-carbonitrile] | > 10
CCNC(=O)N1Cc2ccc(-c3nccc(Nc4ccc(-c5cn[nH]c5)cc4)n3)cc2C1 [TDI01411, 5-(4-((4-(1H-pyrazol-4-yl)phenyl)amino)pyrimidin-2-yl)-N-ethylisoindoline-2-carboxamide] | > 10
CCN(CCO)C(=O)c1cc2ccc(-c3nccc(Nc4ccc(-c5cn[nH]c5)cc4)n3)cc2[nH]1 [TDI01415, 6-(4-((4-(1H-pyrazol-4-yl)phenyl)-amino)-pyrimidin-2-yl)-N-ethyl-N-(2-hydroxyethyl)-1H-indole-2-carboxamide] | 3.71
CN(C(=O)c1cc2ccc(-c3nccc(Nc4ccc(-c5cn[nH]c5)cc4)n3)cc2[nH]1)C1CC(O)C1 (stereo not drawn) [TDI01418, 6-(4-((4-(1H-pyrazol-4-yl)phenyl)amino)pyrimidin-2-yl)-N-(3-hydroxycyclobutyl)-N-methyl-1H-indole-2-carboxamide] | 5.38
CN(C(=O)c1cc2ccc(-c3nccc(Nc4ccc(-c5cn[nH]c5)cc4)n3)cc2[nH]1)C1CCC1 [TDI01420, 6-(4-((4-(1H-pyrazol-4-yl)phenyl)amino)pyrimidin-2-yl)-N-cyclobutyl-N-methyl-1H-indole-2-carboxamide] | 9.29
CN(C(=O)c1cc2ccc(-c3nccc(Nc4ccc(-c5cn[nH]c5)cc4)n3)cc2[nH]1)c1ccncc1 [TDI01421, 6-(4-((4-(1H-pyrazol-4-yl)phenyl)-amino)-pyrimidin-2-yl)-N-methyl-N-(pyridin-4-yl)-1H-indole-2-carboxamide] | 5.94
O=C(NC1CCOC1)c1cc2ccc(-c3nc(Nc4ccc(-c5cn[nH]c5)cc4)c4sccc4n3)cc2[nH]1 (stereo not drawn) [TDI01423, 6-(4-((4-(1H-pyrazol-4-yl)phenyl)-amino)-thieno-[3,2-d]-pyrimidin-2-yl)-N-(tetrahydro-furan-3-yl)-1H-indole-2-carboxamide] | > 10
O=C(NC1CCC1)c1cc2ccc(-c3nc(Nc4ccc(-c5cn[nH]c5)cc4)c4sccc4n3)cc2[nH]1 [TDI01424, 6-(4-((4-(1H-pyrazol-4-yl)phenyl)-amino)-thieno-[3,2-d]-pyrimidin-2-yl)-N-cyclobutyl-1H-indole-2-carboxamide] | 4.98
O=C(c1cc2ccc(-c3nccc(Nc4ccc(-c5cn[nH]c5)cc4)n3)cc2[nH]1)N1CCC2(CCNCC2)CC1 [TDI01425, (6-(4-((4-(1H-pyrazol-4-yl)phenyl)-amino)-pyrimidin-2-yl)-1H-indol-2-yl)(3,9-diazaspiro[5.5]undecan-3-yl)methanone] | 2.94
CN(CC(F)(F)F)C(=O)c1cc2ccc(-c3ncc(F)c(Nc4ccc(-c5cn[nH]c5)cc4)n3)cc2[nH]1 [TDI01426, 6-(4-((4-(1H-pyrazol-4-yl)phenyl)amino)-5-fluoropyrimidin-2-yl)-N-methyl-N-(2,2,2-trifluoroethyl)-1H-indole-2-carboxamide] | > 10
CN(CC#N)C(=O)c1cc2ccc(-c3nccc(Nc4ccc(-c5cn[nH]c5)cc4)n3)cc2[nH]1 [TDI01430, 6-(4-((4-(1H-pyrazol-4-yl)phenyl)amino)pyrimidin-2-yl)-N-(cyanomethyl)-N-methyl-1H-indole-2-carboxamide] | > 10
O=C(c1cc2ccc(-c3nccc(Nc4ccc(-c5cn[nH]c5)cc4)n3)cc2[nH]1)N1CC(C(F)(F)F)C1 [TDI01433, (6-(4-((4-(1H-pyrazol-4-yl)phenyl)amino)pyrimidin-2-yl)-1H-indol-2-yl)(3-(trifluoromethyl)azetidin-1-yl)methanone] | 1.97
O=C(c1cc2ccc(-c3nccc(Nc4ccc(-c5cn[nH]c5)cc4)n3)cc2[nH]1)N1CC(F)(F)C1 [TDI01434, (6-(4-((4-(1H-pyrazol-4-yl)phenyl)ami-no)pyrimidin-2-yl)-1H-indol-2-yl)(3,3-difluoroazetidin-1-yl)methanone] | > 10
O=C(c1cc2ccc(-c3nccc(Nc4ccc(-c5cn[nH]c5)cc4)n3)cc2[nH]1)N1CC(C(F)F)C1 [TDI01435, (6-(4-((4-(1H-pyrazol-4-yl)phenyl)amino)pyrimidin-2-yl)-1H-indol-2-yl)(3-(difluoromethyl)azetidin-1-yl)methanone] | 1.23
CN(CCC#N)C(=O)c1cc2ccc(-c3nccc(Nc4ccc(-c5cn[nH]c5)cc4)n3)cc2[nH]1 [TDI01442, 6-(4-((4-(1H-pyrazol-4-yl)phenyl)amino)pyrimidin-2-yl)-N-(2-cyanoethyl)-N-methyl-1H-indole-2-carboxamide] | > 10
O=C(N1Cc2ccc(-c3nccc(Nc4ccc(-c5cn[nH]c5)cc4)n3)cc2C1)N1CC(F)(F)C1 [TDI01467] | > 10
Cn1c(C(=O)N2CC(F)(F)C2)cc2ccc(-c3nccc(Nc4ccc(-c5cn[nH]c5)cc4)n3)cc21 [TDI01470, (6-(4-((4-(1H-pyrazol-4-yl)phenyl)amino)pyrimidin-2-yl)-1-methyl-1H-indol-2-yl)(3,3-difluoroazetidin-1-yl)methanone] | > 10
CCN(CC)C(=O)c1cc2ccc(-c3ncc(OC)c(Nc4ccc(-c5cn[nH]c5)cc4)n3)cc2[nH]1 [TDI01823, 6-(4-((4-(1H-pyrazol-4-yl)phenyl)-amino)-5-methoxy-pyrimidin-2-yl)-N,N-diethyl-1H-indole-2-carboxamide] | > 10
N#Cc1cnccc1NC(=O)c1cc2ccc(-c3nccc(Nc4ccc(-c5cn[nH]c5)cc4)n3)cc2[nH]1 [TDI01829B, 6-(4-((4-(1H-pyrazol-4-yl)phenyl)amino)pyrimidin-2-yl)-N-(3-cyanopyridin-4-yl)-1H-indole-2-carboxamide] | > 10
O=C(Nc1ccncc1I)c1cc2ccc(-c3nccc(Nc4ccc(-c5cn[nH]c5)cc4)n3)cc2[nH]1 [TDI01829C, 6-(4-((4-(1H-pyrazol-4-yl)phenyl)-amino)-pyrimidin-2-yl)-N-(3-iodopyridin-4-yl)-1H-indole-2-carboxamide] | > 10
O=C(c1cc2ccc(-c3nccc(Nc4ccc(-c5cn[nH]c5)c(F)c4)n3)cc2[nH]1)N1CC(F)(F)C1 [TDI01842B, (3,3-difluoroazetidin-1-yl)(6-(4-((3-fluoro-4-(1H-pyrazol-4-yl)phenyl)ami-no)pyrimidn-2-yl)-1H-indol-2-yl)methanone] | 2.77
O=C(NC1CCN(c2ccncc2Cl)CC1)c1cc2ccc(-c3nccc(Nc4ccc(-c5cn[nH]c5)cc4)n3)cc2[nH]1 [TDI01847B, 6-(4-((4-(1H-pyrazol-4-yl)phenyl)-amino)-pyrimidin-2-yl)-N-(1-(3-chloropyridin-4-yl)piperidin-4-yl)-1H-indole-2-carboxamide] | 3.38
O=C(c1cc2ccc(-c3nccc(Nc4ccc(-c5cn[nH]c5)cc4)n3)cc2[nH]1)N1CCO[C@@H](CO)C1 [TDI01852] | > 10
O=C(c1cc2ccc(-c3nccc(Nc4ccc(-c5cn[nH]c5)cc4)n3)cc2[nH]1)N1CCOC[C@H]1CO [TDI01853, (R)-(6-(4-((4-(1H-pyrazol-4-yl)phenyl)-amino)-pyrimidin-2-yl)-1H-indol-2-yl)(3-(hydroxy-methyl)-morpholino)-methanone] | 2.83
C[C@H](CN)NC(=O)c1cc2ccc(-c3nccc(Nc4ccc(-c5cn[nH]c5)cc4)n3)cc2[nH]1 [TDI01855, (R)-6-(4-((4-(1H-pyrazol-4-yl)phenyl)-amino)-pyrimidin-2-yl)-N-(1-aminopropan-2-yl)-1H-indole-2-carboxamide] | 5.42
C[C@@H](CN)NC(=O)c1cc2ccc(-c3nccc(Nc4ccc(-c5cn[nH]c5)cc4)n3)cc2[nH]1 [TDI01856, (S)-6-(4-((4-(1H-pyrazol-4-yl)phenyl)-amino)-pyrimidin-2-yl)-N-(1-aminopropan-2-yl)-1H-indole-2-carboxamide] | 2.04
Fc1cc(Nc2ccnc(-c3ccc4cc(-c5nccs5)[nH]c4c3)n2)ccc1-c1cn[nH]c1 [TDI01908, N-(3-fluoro-4-(1H-pyrazol-4-yl)phenyl)-2-(2-(thiazol-2-yl)-1H-indol-6-yl)pyrimidin-4-amine] | > 10
Cn1c(C(=O)N2CC(F)(F)C2)cc2ccc(-c3ncc(F)c(Nc4ccc(-c5cn[nH]c5)cc4)n3)cc21 [TDI01932] | > 10
O=C(C1CC(F)(F)C1)N1Cc2ccc(-c3ncc(F)c(Nc4ccc(-c5cn[nH]c5)cc4)n3)cc2C1 [TDI01978, (5-(4-((4-(1H-pyrazol-4-yl)phenyl)amino)-5-fluoropyrimidin-2-yl)isoindolin-2-yl)(3,3-difluorocyclobutyl) methanone] | > 10

From US11390609B2, “Rho-associated protein kinase inhibitor, pharmaceutical composition comprising same, and preparation method and use thereof” (BEIJING TIDE PHARMACEUTICAL CO., LTD., priority 2017, dated 2022)
